Measured values from US11608359B2, “Compounds and methods for treating tight junction permeabtility” (9 Meters Biopharma, Inc., priority 2018, dated 2023).
Where no end group is shown, it is not given here.

Legend:
tight junctions = assay: activity as tight junction regulators; conditions: for activity as tight junction regulator: peptide fragment alone
[1] = clinical trials, particularly lower doses (e.g., 0.5 mg dose); cited from earlier work

Row | Substance | activity of full length Larazotide as tight junction regulator (tight junctions; mixed with the two fragments GVLVQPG and VLVQPG) | benefit at reducing CeD symptoms [1] | activity as tight junction regulator (tight junctions)
1 | GGVLVQPG [Larazotide] | completely abolished | significant benefit | –
2 | GVLVQP (Synthetic polymer.) | – | – | inactive
3 | GVLVQPG [Larazotide-derived fragment missing N-terminal glycine] | – | – | inactive
4 | VLVQP (Synthetic polymer.) | – | – | inactive
5 | VLVQPG | – | – | inactive
